Source: US7094789B2, “5-substituted isoquinoline derivatives” (Asahi Kasei Pharma Corporation, priority 2002, dated 2006)
Counter-ions that a name gives are not always drawn.

Assays:
[1] = system: thoracic aorta constricted with phenylephrine; assay: Vasoconstriction inhibitory action (Test Example 2); set-up: species or system Rats (Wistar); conditions: result in words; rat thoracic aorta, phenylephrine
Text: Rats (Wistar, 11-week old) were bleeded to death and laparotomized to take out the thoracic aorta. That aorta was cut into a ring of a length of about 3 mm in a conventional manner (Asano, T., et al., J. Pharmacol. Exp. Ther., 241, pp. 1033–1040 (1987)) and hung in 10-ml organ bath filled with Krebs-Hensright nutrient solution bubbled with a mixed gas of 95% O2 and 5% CO2. One end of the blood vessel was connected to an isometric transducer (FD Pickup TB-912T, Nihon Kohden) and applied with 2.5 g of resting tension, and constriction and relaxation reactions of the aorta were recorded. The aorta was constricted with phenylephrine (1 μM, Sigma) and then added with a test compound (1 μM), and the vasoconstriction inhibitory action thereof was observed. The vasoconstriction inhibitory actions of the test compounds are shown in Table 6 mentioned below as the relaxation ratios, which are based on the vasoconstriction with phenylephrine immediately before the addition of the test compound taken as 100%.

[2] = system: ovalbumin-induced constriction of respiratory tract; assay: Respiratory tract constriction suppression action (Test Example 3); format: in vivo, Hartley guinea pigs; conditions: ovalbumin-immunized guinea pigs; test medicament via hind leg vein; 15 minutes after administration
Protocol: Four-week old Hartley guinea pigs (male) were immunized by intraperitoneal administration of ovalbumin (Sigma, Grade V) in amounts of 1 mg for each animal on the day on which the experiment was started, 3 mg for each animal after 2 days, and 10 mg for each animal after 4 days. Twelve to fourteen days after the final immunization, the ovalbumin-immunized guinea pigs were anesthetized by intraperitoneal administration of about 40 mg/kg of pentobarbital (Somnopentyl), and the tracheas were taken out. Subsequently, a cannula (SP-110, Natsume) was inserted into each trachea, and one end of the cannula was connected to an artificial respirator (Model-b83, Harvard). The aeration conditions were set at 6 ml per kilogram and 60 times per 1 minute. Further, a cannula for medicament administration (JMS wing needle 23G 3/4) was inserted into a hind leg vein. Myoblock (Organon Technica) was administered in an amount of 0.5 mg/kg from the cannula inserted into the hind leg vein to stop the spontaneous breathing, and after 2 or 3 minutes, 0.3 mg/kg of ovalbumin was administered to induce constriction of respiratory tract. The increase of airway resistance value 2 minutes after the induction (measurement apparatuses: pressure transducer TR-603T, respiratory amplifier AR-601G, and recorder RTA-3100, Nihon Kohden Corp.) was confirmed to be above 80 cm H2O or higher, and then, a solution of a test medicament was administered from the cannula inserted into the hind leg vein, and the airway resistance value was continuously measured for 15 minutes after the administration to determine the effect.

[3] = system: intraocular pressure; assay: Intraocular pressure reducing action (Test Example 4); format: in vivo, Japanese white rabbit; conditions: for inhibition in vivo at 1 %, 50 µL: Oryctolagus cuniculus, topical, 1% aqueous solution, 50 μl dropped to the left eye, after 2 hours, read-out: Intraocular pressure reducing action (reduction ratio) (%); for intraocular pressure reducing activity: result in words, rabbit
Protocol: A Japanese white rabbit having a body weight of about 2 kg was placed in a positioner and naturalized for one week before the experiment. An ophthalmologic local anesthesant (Benoxil) was administered to the left eye, and then intraocular pressure was measured by using a tonometer (Classic 30, Solan). The initial value of the intraocular pressure was measured, then 50 μl of a test compound (1% aqueous solution) was dropped to the left eye, and after 2 hours, the intraocular pressure was measured. The intraocular pressure reducing action of the test compounds is shown in Table 7 mentioned below as ratios (%) of reduction of intraocular pressure based on the initial value of the intraocular pressure.

Row | Structure (SMILES) | vasoconstriction inhibitory action [1] | constriction of respiratory tract (airway resistance value) [2] | inhibition in vivo at 1 %, 50 µL [3] | intraocular pressure reducing activity [3]
1 | Cl.NCCN(CCS(=O)(=O)c1ccccc1)S(=O)(=O)c1cccc2c(O)nccc12 [Example 12, N-[(1-Hydroxy-5-isoquinolyl)sulfonyl]-N-[2-(phenylsulfonyl)ethyl]ethylenediamine hydrochloride] | significant vasoconstriction inhibitory action | significantly improved the constriction of respiratory tract | 13.3% | 
2 | Cl.Clc1cncc2cccc(NC3CCNCC3)c12 [Example 118, 4-(4-Chloro-5-isoquinolyl)aminopiperidine hydrochloride] |  | significantly improved the constriction of respiratory tract | 25% | 
3 | Cc1cncc2cccc(O[C@H]3CC[C@H](N)CC3)c12.Cl [Example 140, Trans-4-[(4-methyl-5-isoquinolyl)oxy]cyclohexylamine hydrochloride] | significant vasoconstriction inhibitory action | significantly improved the constriction of respiratory tract |  | significant intraocular pressure reducing activity
4 | c1cc(NC2CCCNC2)c2ccncc2c1 (racemic) [Example 29, 3-N-(5-Isoquinolyl)aminopiperidine hydrochloride] |  | significantly improved the constriction of respiratory tract |  | 
5 | Cc1cncc2cccc(NC3CCN(CCO)CC3)c12.Cl [Example 146, 1-(2-Hydroxyethyl)-4-(4-methyl-5-isoquinolyl)aminopiperidine hydrochloride] | significant vasoconstriction inhibitory action | significantly improved the constriction of respiratory tract |  | significant intraocular pressure reducing activity
6 | Cl.Nc1nccc2c(OCC3CCCNC3)cccc12 (stereo not drawn) [Example 11, 3-[(1-Amino-5-isoquinolyl)oxy]methylpiperidine hydrochloride] |  | significantly improved the constriction of respiratory tract |  | 
7 | Cl.N[C@H]1CC[C@H](Oc2cccc3cncc(Br)c23)CC1 [Example 133, Trans-4-[(4-bromo-5-isoquinolyl)oxy]cyclohexylamine hydrochloride] |  | significantly improved the constriction of respiratory tract |  | significant intraocular pressure reducing activity
8 | Cc1cncc2cccc(N[C@H]3CC[C@H](N)CC3)c12.Cl [Example 121, Trans-N-(4-methyl-5-isoquinolyl)-1,4-cyclohexanediamine hydrochloride] | significant vasoconstriction inhibitory action | significantly improved the constriction of respiratory tract | 31.3% | 
